Measurements reported in patent publication US10258606B2, “Endothelin single nucleotide polymorphisms and methods of predicting β-adrenergic receptor targeting agent efficacy” (The Regents of the University of Colorado, A Body Corporate, priority 2007, dated 2019).

Experiments:
[1] = system: subjects with idiopathic dilated cardiomyopathy; test: BEST (Beta-Blocker Evaluation of Survival Trial) DNA substudy: time to event by endothelin gene system genotype, Cox proportional hazards model; format: in vivo, human; conditions: for Event/number, first heart failure hospitalization or death: FIG. 1; for E, number of events / HR associated with each copy of allele A, allele dosage Cox model / HR associated with each copy of allele Asn, allele dosage Cox model: bucindolol arm; for HR associated with each copy of allele A, allele dosage Cox model: G/A (IVS-4); for HR associated with each copy of allele Asn, allele dosage Cox model: Lys198Asn
From the text: 309 subjects with idiopathic dilated cardiomyopathy were studied from the Beta-Blocker Evaluation of Survival Trial (BEST) (2001). BEST was a multicenter, randomized, prospective trial of patients with NYHA class III or IV heart failure and an ejection fraction <35% comparing mortality in adults treated with placebo or the non-selective β-blocker bucindolol. The BEST DNA bank, initiated in the study's second year, collected samples from 38% of the original participants. The inventors requested samples from idiopathic dilated cases, rather than the entire cohort, to ensure a more homogenous heart failure population. In particular, the inventors sought to avoid studying […] ischemic forms of heart failure where acquired macrovascular changes in arterial stiffness or tone could potentially mask or override inherent microvascular phenotypes mediated by variation in endothelin genes. Written informed consent was obtained from each participant and all DNA was coded to maintain confidentiality. The genotyping project was approved by the BEST DNA Bank Oversight Committee and by the Colorado Multiple Institutional Review Board
Time to each of two endpoints was examined: all cause death and a combined endpoint comprised of first heart failure hospitalization or all cause death, using the Cox proportional hazards model. Genotype was treated a priori as a continuous variable, consistent with an allele dosage effect. Analyses were conducted using R and SAS. Primary analyses consisted of separate tests of a main genotype effect on time to event for each SNP within each treatment arm: placebo (N=159) and bucindolol (N=150). Secondary analyses, in the combined sample (N=309), consisted of tests of a genotype-treatment pharmacogenetic interaction and of a main genotype effect independent of treatment arm. Secondary analyses, comprised of interaction tests and estimation of within-genotype bucindolol:placebo hazard ratios, were also performed. Ethnicity was not included as a factor in initial Cox models, because of the relatively small sample. However, post-hoc analyses (within ethnic group, and including ethnicity-genotype interactions) were used to explore whether initial results were due to unaccounted for ethnic stratification. Linkage disequilibrium was assessed by taking the R^2 value (squared correlation) of the genotypes (coded as 0, 1 or 2) between two SNPs.
To account for the large number of simultaneous tests, adjusted p-values obtained from a multiple-testing permutation procedure are reported (Westfall and Young, 1993). Based on the actual data set, 5000 random data sets were generated by randomly permuting the time to event data relative to the genotype data, separately for patients on placebo and for patients on bucindolol. […] Adjusted p-values for interaction tests are based on 18 tests (2 outcomes×9 SNPs).
Cox model analysis was also used to examine a variety of more complicated models, and to describe the quantify the effects of bucindolol in terms of bucindolol:placebo hazard ratios, within genotype. Kaplan-Meier plots and log-rank tests were also examined. All p-values were based on two-sided tests. The statistical analysis was performed at the Veterans Affairs Cooperative Studies Program DNA Bank Coordinating Center.

[2] = system: 1040 BEST DNA Bank subjects; conditions: bucindolol treated subjects carrying the Arg-389 allele of the beta-1-adrenergic receptor (ADRB); cited from earlier work
[3] = combined endpoint, Non-Hispanic Blacks
[4] = combined endpoint, Non-Hispanic Whites

CC(C)(Cc1c[nH]c2ccccc12)NCC(O)COc1ccccc1C#N (centres unmarked) [Bucindolol, bucindolol]
Event/number, first heart failure hospitalization or death ([1]; IVS-4 G/A common homozygotes): 21/84
Event/number, first heart failure hospitalization or death ([1]; IVS-4 G/A heterozygotes): 21/58
Event/number, first heart failure hospitalization or death ([1]; IVS-4 G/A rare homozygotes): 7/8
Event/number, first heart failure hospitalization or death ([1]; Lys198Asn common homozygotes): 22/87
Event/number, first heart failure hospitalization or death ([1]; Lys198Asn heterozygotes): 20/55
Event/number, first heart failure hospitalization or death ([1]; Lys198Asn rare homozygotes): 7/8
E, number of events ([1]; combined endpoint, G/A (IVS-4) analysis, All (N 150)): 49
E, number of events ([1]; combined endpoint, G/A (IVS-4) analysis, Non-Hispanic Blacks (N 38)): 16
E, number of events ([1]; combined endpoint, G/A (IVS-4) analysis, Non-Hispanic Whites (N 100)): 27
HR associated with each copy of allele A, allele dosage Cox model ([1]; combined endpoint, All): 2.2
HR associated with each copy of allele A, allele dosage Cox model [1, 3]: 1.58
HR associated with each copy of allele A, allele dosage Cox model [1, 4]: 1.9
E, number of events ([1]; combined endpoint, Lys198Asn analysis, All (N 150)): 49
E, number of events ([1]; combined endpoint, Lys198Asn analysis, Non-Hispanic Blacks (N 38)): 16
E, number of events ([1]; combined endpoint, Lys198Asn analysis, Non-Hispanic Whites (N 100)): 27
HR associated with each copy of allele Asn, allele dosage Cox model ([1]; combined endpoint, All): 2.0
HR associated with each copy of allele Asn, allele dosage Cox model [1, 3]: 1.5
HR associated with each copy of allele Asn, allele dosage Cox model [1, 4]: 1.9
Hazard ratio for bucindolol versus placebo ([1]; combined endpoint (first heart failure hospitalization or all cause mortality), EDN1 G/A (IVS-4) genotype GG): 0.5
Hazard ratio for bucindolol versus placebo ([1]; combined endpoint, EDN1 G/A (IVS-4) genotype AA): 3.2
Hazard ratio for bucindolol versus placebo ([1]; combined endpoint, EDN1 G/A (IVS-4) genotype GA): 1.1
Hazard ratio for bucindolol versus placebo ([1]; combined endpoint, EDN1 Lys198Asn genotype Asn/Asn): 2.5
Hazard ratio for bucindolol versus placebo ([1]; combined endpoint, EDN1 Lys198Asn genotype Lys/Asn): 1.1
Hazard ratio for bucindolol versus placebo ([1]; combined endpoint, EDN1 Lys198Asn genotype Lys/Lys): 0.5
apparent effect of bucindolol on combined endpoint ([1]; common homozygotes (statistically significant)): beneficial effect
apparent effect of bucindolol on combined endpoint ([1]; heterozygotes): neutral effect
apparent effect of bucindolol on combined endpoint ([1]; rare homozygotes): harmful effect
combined endpoint hazard rate on bucindolol relative to placebo ([1]; the 5.5% of subjects homozygous for the rare complementary haplotype): almost three times greater
all-cause mortality [2]: reduced all-cause mortality
